{"source": "ChEMBL document CHEMBL1131902", "about": "“Reversal of resistance in multidrug resistance protein (MRP1)-overexpressing cells by LY329146” (Bioorg Med Chem Lett, 1999)", "key": {"[1]": {"system": "HL-60", "test": "Ability to inhibit 50 nM Leukotriene C4 (LTC4) uptake into HL60/ADR membrane vesicles", "format": "functional, cell-based", "conditions": "Homo sapiens"}, "[2]": {"system": "HL-60", "test": "Cytotoxicity tested against drug sensitive HL60/S cell line at 5 uM dose of LY-329146", "format": "functional, cell-based", "conditions": "Homo sapiens"}, "[3]": {"system": "HL-60", "test": "Cytotoxicity tested against HL60/Vinc cell line at 5 uM dose of LY-329146", "format": "functional, cell-based", "conditions": "Homo sapiens"}, "[4]": {"system": "HL-60", "test": "Cytotoxicity tested against drug resistant HL60/ADR cell line at 0.5 uM dose of LY-329146", "format": "functional, cell-based", "conditions": "Homo sapiens"}, "[5]": {"system": "HL-60", "test": "Cytotoxicity tested against drug resistant HL60/ADR cell line at 5 uM dose of LY-329146", "format": "functional, cell-based", "conditions": "Homo sapiens"}, "[6]": {"system": "HeLa", "test": "Cytotoxicity tested against Hela C1 cells at 1 uM dose of LY-329146", "format": "functional, cell-based", "conditions": "Homo sapiens"}, "[7]": {"system": "HL-60", "test": "Cytotoxicity against HL60/Vinc cell line at 0.5 uM dose of LY-329146", "format": "functional, cell-based", "conditions": "Homo sapiens"}, "[8]": {"system": "HeLa", "test": "Cytotoxicity tested against Hela C1 cells at 2.5 uM dose of LY-329146", "format": "functional, cell-based", "conditions": "Homo sapiens"}, "[9]": {"system": "HL-60", "test": "Cytotoxicity against drug sensitive HL60/S cell line at 0.5 uM dose of LY-329146", "format": "functional, cell-based", "conditions": "Homo sapiens"}, "[10]": {"system": "HeLa", "test": "Cytotoxicity tested against Hela T5 cells at 1 uM dose of LY-329146", "format": "functional, cell-based", "conditions": "Homo sapiens"}, "[11]": {"system": "HL-60", "test": "Cytotoxicity tested against HL60/Vinc cell line at 1 uM dose of LY-329146 at 1 uM", "format": "functional, cell-based", "conditions": "Homo sapiens"}, "[12]": {"system": "HeLa", "test": "Cytotoxicity tested against Hela T5 cells at 2.5 uM dose of LY-329146", "format": "functional, cell-based", "conditions": "Homo sapiens"}, "[13]": {"system": "HL-60", "test": "Cytotoxicity tested against drug sensitive HL60/S cell line at 1 uM dose of LY-329146", "format": "functional, cell-based", "conditions": "Homo sapiens"}, "[14]": {"system": "HL-60", "test": "Cytotoxicity against drug resistant HL60/ADR cell line at 1 uM dose of LY-329146", "format": "functional, cell-based", "conditions": "Homo sapiens"}, "[15]": {"system": "HL-60", "test": "Cytotoxicity tested against drug resistant HL60/ADR cell line at 5 uM dose of LY-117018", "format": "functional, cell-based", "conditions": "Homo sapiens"}, "[16]": {"system": "HL-60", "test": "Ability to enhance the cytotoxicity of doxorubicin against […] HL60/ADR cell line expressed as reversal factor (RF) at 5 uM", "format": "functional, Homo sapiens"}, "[17]": {"system": "HL-60", "test": "Ability to enhance the cytotoxicity of doxorubicin against […] HL60/ADR cell line expressed as reversal factor (RF) at 1 uM", "format": "functional, Homo sapiens"}, "[18]": {"system": "HL-60", "test": "Cytotoxicity tested against drug resistant HL60/ADR cell line at 1 uM dose of LY-117018", "format": "functional, cell-based", "conditions": "Homo sapiens"}, "[19]": {"system": "HeLa", "test": "Ratio of IC50 of oncolytic and its modulator against Hela T5 cells at 1 uM dose of LY-329146", "format": "functional, Homo sapiens"}, "[20]": {"system": "HeLa", "test": "Ratio of IC50 of oncolytic and its modulator against Hela C1 cells at 1 uM dose of LY-329146", "format": "functional, Homo sapiens"}, "[21]": {"system": "HeLa", "test": "Ratio of IC50 of oncolytic and its modulator against Hela T5 cells at 2.5 uM dose of LY-329146", "format": "functional, Homo sapiens"}, "[22]": {"system": "HeLa", "test": "Ratio of IC50 of oncolytic and its modulator against Hela C1 cells at 2.5 uM dose of LY-329146", "format": "functional, Homo sapiens"}, "[23]": {"system": "HL-60", "test": "Cytotoxicity against drug resistant HL60/ADR cell line", "format": "functional, cell-based", "conditions": "Homo sapiens"}, "[24]": {"system": "HL-60", "test": "Cytotoxicity tested against HL60/Vinc cell line", "format": "functional, cell-based", "conditions": "Homo sapiens"}, "[25]": {"system": "HL-60", "test": "Cytotoxicity tested against drug sensitive HL60/S cell line", "format": "functional, cell-based", "conditions": "Homo sapiens"}, "[26]": {"system": "HeLa", "test": "Cytotoxicity tested against Hela T5 cells", "format": "functional, cell-based", "conditions": "Homo sapiens"}, "[27]": {"system": "HeLa", "test": "Cytotoxicity tested against Hela C1 cells", "format": "functional, cell-based", "conditions": "Homo sapiens"}}, "data": [{"compound": "CS(=O)(=O)N(c1ccc(-c2sc3cc(O)ccc3c2C(=O)c2ccc(OCCN3CCCCC3)cc2)cc1)S(C)(=O)=O", "values": [{"measurement": "IC50", "setting": "[1]", "result": 0.8, "unit": "µg/mL"}]}, {"compound": "COc1cccc2c1C(=O)c1c(O)c3c(c(O)c1C2=O)C[C@@](O)(C(=O)CO)C[C@@H]3O[C@H]1C[C@H](N)[C@H](O)[C@H](C)O1.CS(=O)(=O)N(c1ccc(-c2sc3cc(O)ccc3c2C(=O)c2ccc(OCCN3CCCCC3)cc2)cc1)S(C)(=O)=O", "values": [{"measurement": "IC50", "setting": "[2]", "result": 0.011, "unit": "µg/mL"}, {"measurement": "IC50", "setting": "[3]", "result": 0.027, "unit": "µg/mL"}, {"measurement": "IC50", "setting": "[4]", "result": 1.71, "unit": "µg/mL"}, {"measurement": "IC50", "setting": "[5]", "result": 0.224, "unit": "µg/mL"}, {"measurement": "IC50", "setting": "[6]", "result": 0.315, "unit": "µg/mL"}, {"measurement": "IC50", "setting": "[7]", "result": 1.44, "unit": "µg/mL"}, {"measurement": "IC50", "setting": "[8]", "result": 0.213, "unit": "µg/mL"}, {"measurement": "IC50", "setting": "[9]", "result": 0.023, "unit": "µg/mL"}, {"measurement": "IC50", "setting": "[10]", "result": 1.06, "unit": "µg/mL"}, {"measurement": "IC50", "setting": "[11]", "result": 0.444, "unit": "µg/mL"}, {"measurement": "IC50", "setting": "[12]", "result": 0.241, "unit": "µg/mL"}, {"measurement": "IC50", "setting": "[13]", "result": 0.018, "unit": "µg/mL"}, {"measurement": "IC50", "setting": "[14]", "result": 1.11, "unit": "µg/mL"}]}, {"compound": "COc1cccc2c1C(=O)c1c(O)c3c(c(O)c1C2=O)C[C@@](O)(C(=O)CO)C[C@@H]3O[C@H]1C[C@H](N)[C@H](O)[C@H](C)O1.O=C(c1ccc(OCCN2CCCC2)cc1)c1c(-c2ccc(O)cc2)sc2cc(O)ccc12", "values": [{"measurement": "IC50", "setting": "[15]", "result": 1, "unit": "µg/mL"}, {"measurement": "RF", "setting": "[16]", "result": 3}, {"measurement": "RF", "setting": "[17]", "result": 1}, {"measurement": "IC50", "setting": "[18]", "result": 3.2, "unit": "µg/mL"}]}, {"compound": "CC[C@]1(O)CC2CN(CCc3c([nH]c4ccccc34)[C@@](C(=O)OC)(c3cc4c(cc3OC)N(C=O)C3C45CCN4CC=C[C@@](CC)(C(OC(C)=O)[C@]3(O)C(=O)OC)[C@H]45)C2)C1.CS(=O)(=O)N(c1ccc(-c2sc3cc(O)ccc3c2C(=O)c2ccc(OCCN3CCCCC3)cc2)cc1)S(C)(=O)=O", "note": "(some centres not stated)", "values": [{"measurement": "RF", "setting": "[19]", "result": 1.6}, {"measurement": "IC50", "setting": "[6]", "result": 0.007, "unit": "µg/mL"}, {"measurement": "IC50", "setting": "[8]", "result": 0.005, "unit": "µg/mL"}, {"measurement": "RF", "setting": "[20]", "result": 2}, {"measurement": "IC50", "setting": "[10]", "result": 0.031, "unit": "µg/mL"}, {"measurement": "IC50", "setting": "[12]", "result": 0.013, "unit": "µg/mL"}, {"measurement": "RF", "setting": "[21]", "result": 3.9}, {"measurement": "RF", "setting": "[22]", "result": 2.8}]}, {"compound": "COc1cccc2c1C(=O)c1c(O)c3c(c(O)c1C2=O)C[C@@](O)(C(=O)CO)C[C@@H]3O[C@H]1C[C@H](N)[C@H](O)[C@H](C)O1", "note": "[DOXORUBICIN]", "values": [{"measurement": "IC50", "setting": "[23]", "result": 2.97, "unit": "µg/mL"}, {"measurement": "IC50", "setting": "[24]", "result": 1.88, "unit": "µg/mL"}, {"measurement": "IC50", "setting": "[25]", "result": 0.028, "unit": "µg/mL"}]}, {"compound": "CN(C)C(=O)CCSC(SCCC(=O)O)c1cccc(/C=C/c2ccc3ccc(Cl)cc3n2)c1", "note": "(configuration not stated) [MK-571]", "values": [{"measurement": "IC50", "setting": "[1]", "result": 0.5, "unit": "µg/mL"}]}, {"compound": "CC[C@]1(O)C[C@H]2CN(CCc3c([nH]c4ccccc34)[C@@](C(=O)OC)(c3cc4c(cc3OC)N(C=O)[C@H]3[C@@](O)(C(=O)OC)[C@H](OC(C)=O)[C@]5(CC)C=CCN6CC[C@]43[C@@H]65)C2)C1", "note": "[VINCRISTINE]", "values": [{"measurement": "IC50", "setting": "[26]", "result": 0.051, "unit": "µg/mL"}, {"measurement": "IC50", "setting": "[27]", "result": 0.014, "unit": "µg/mL"}]}]}
